Results taken from patent US10294230B2, “3,3-difluoropiperidine carbamate heterocyclic compounds as NR2B NMDA receptor antagonists” (Rugen Holdings (Cayman) Limited, priority 2015, dated 2019).
Read-outs that look alike come from different tables or passages of the source.

Assays:
CYP2D6 = CYP2D6 (Homo sapiens (Human), UniProt P10635); experiment: CYP P450 enzyme inhibition, pooled human liver microsome; format: in vitro ADME; conditions: pooled HLM, dextromethorphan 5 μM
Description: Those CYP isoforms and their corresponding probe substrates are as follows: CYP1A2 (phenacetin, 30 μM), CYP2C9 (tolutamide, 100 μM), CYP2C19 (S-mephenytoin, 40 μM), CYP2D6 (dextromethorphan, 5 μM) and CYP3A4 (midazolam, 1 μM). All probe substrates were used at concentrations near or below their Kms. For experiment, a reaction mixture of test compound at 10 μM or in serial dilution, CYP probe substrate described above and 0.2 mg/mL pooled HLM in phosphate buffer, pH 7.4 in a final volume of 200 μL was pre-incubated at 37° C. for 10 minutes in triplicate. The reaction was initiated by addition of NADPH at final concentration of 1 mM. The reaction was terminated after 10 minutes (CYP1A2, CYP2D6 and CYP3A4) or 30 minutes (CYP2C9 and CYP2C19) by addition of 100 μL ice-cold acetonitrile with internal standard (IS). The samples were then centrifuged at 13,000 rpm and the supernatants were injected to LC-MS/MS (Agilent Technologies) to quantify the concentration of the specific metabolites of the probe substrates formed by individual CYP450 isoforms. The inhibition ratio is calculated as: (Mt−M0)/Mwater×100% in which Mt and M0 represent the concentrations of the specific probe substrate metabolite, which was formed by individual CYP450 isoform, at the beginning and end of the reaction in the presence of test compound; while Mwater represents the concentration of the specific metabolite at the end of the reaction in the absence of test compound. Test compound concentration-dependent response data experiments performed in triplicate.

[1] = tested on: KCl-induced cortical spreading depression; experiment: Cortical Spreading Depression (CSD), aura phase of migraine model; format: in vivo; conditions: rats
Description: The cortical spreading depression model is utilized to investigate whether treatment with compounds of the present invention affect electrophysiological and hemodynamic events in a rat model of migraine.
Rats were anesthetized with 5% isoflurane (in 70% N2O and 30% O2; flow 300 ml/min) and placed in a stereotactic frame. […] The rectal temperature was maintained at 37.0±1.0° C. with a homeothermic blanket system. The skin was opened by a medial incision and retracted laterally. Three burr holes were drilled under saline cooling over the right hemisphere at the following coordinates (mm from bregma): (1) posterior 4.5, lateral, 2.0 (occipital cortex): KCl application site; (2) posterior 0.5, lateral 2.0 (parietal cortex): LDF recording site; (3) anterior 2, lateral 2 (frontal cortex): DC potential recording site. A laser-Doppler flow probe (Oxyflow, Oxford Optronics, UK) to monitor CBF and an invasive Ag/AgCl electrode for measuring direct current (DC) potential shifts were placed in the parietal and frontal cortex burr holes on the intact dura and in the cortex, respectively. The laser-Doppler flow probe was positioned in an area free of large pial and dural vessels to minimize a large-vessel contribution to the signal. For the DC-potential measurement, a reference electrode was fixed in the neck. Dura overlying the occipital cortex was gently removed and care was taken to avoid bleeding. After surgical preparation, the cortex was allowed to recover for 15 minutes under saline irrigation. A cotton ball (2 mm diameter) soaked with 1M KCl was placed on the pial surface and kept moist by placing 5 μl of KCl solution every 15 minutes. Test compound or vehicle was administered ten (10) minutes prior to CSD initiation. […] The number of KCl-induced CSDs was counted for 2 hours. The CBF and DC-potentials were monitored continuously starting from 5 minutes before KCl exposure.
Test compound E1-1.2 was administered as a mesylate salt (mpk based on molecular weight of the mesylate salt).
The data was collected in Windaq acquisition software (Dataq Instruments, USA) at 20 kHz. The raw data was analyzed in Clampfit program (Axon Instruments, USA). The signals were low pass filtered (cut off range 5-10000 Hz) that CSD episodes in DC and CBF could be confirmed. The following parameters were analyzed: i) the number, duration and amplitude of DC-potentials, and ii) the number and amplitude of CBF events.
Doses were given as milligram per kilogram (mpk). […] Bars represent mean±Standard Error of Mean (SEM), and differences were considered to be statistically significant at the P<0.05 level (n=8, * different from vehicle group). Statistical analysis was performed using StatsDirect statistical software. Differences between groups were analyzed by using 1-way ANOVA and Dunnett's post hoc test.

[2] = tested on: electroconvulsive threshold (tonic convulsions); experiment: Electroconvulsive Threshold Test (ECT); format: in vivo, rats; conditions: rats
Description: Test compound E1-8.2 was administered as the free base.
Rats were administered ECS (rectangular current: 0.6 ms pulse width, 1.5 s duration, 200 Hz) via earclip electrodes connected to a constant current shock generator (Ugo Basile: type 7801). Test compounds were administered by oral gavage (p.o.) 1 hour before the test at a dose volume of 5 mL/kg.
Treatment groups of 20 rats were exposed to ECS as follows: The first animal was exposed to 30 mA of ECS. […] (increases of 5 mA) until the first tonic convulsion was observed. Once the first tonic convulsion was observed, the intensity of ECS was decreased by 2 mA for the next animal and then decreased or increased by 2 mA from animal to animal depending on whether the previous animal convulsed or not. If the first animal did convulse (tonic convulsions) within 5 seconds, animal no2 is exposed to 25 mA, etc. . . . (decreases of 5 mA) until the absence of tonic convulsions was observed. At this point, the intensity of ECS was increased by 2 mA for the next animal and then decreased or increased by 2 mA from animal to animal depending on whether the previous animal convulsed or not. The minimum current intensity applied is 5 mA and the maximum 95 mA. The first 5 animals serve to approach threshold current and were not included in the analysis. The results are presented as the mean current intensity administered to the final 15 animals of a group. The test was performed blind. A positive percent change indicates an anticonvulsant effect. A negative percent change indicates a proconvulsant effect. The test substance was evaluated at 4 doses, typically using 0.5% dimethylsulfoxide, 4% hydroxypropyl-b-cyclodextrin water as a vehicle, and administered p.o. 60 minutes before ECS, and compared with a vehicle control group. Diazepam (16 mg/kg p.o.), administered under the same experimental conditions, was used as reference substance. The experiment included 6 groups. Data with the test substance was analyzed by comparing treated groups with vehicle control using one-way ANOVA followed by Dunnett's t tests.

hERG channel = hERG channel (Homo sapiens (Human), UniProt Q12809); experiment: hERG channel inhibition, whole cell patch clamp in HEK293 cells; format: cell-based; conditions: for IC50: HEK293, whole cell patch clamp
Description: The assay was performed on hERG channel stably expressed in HEK293 cells. The cells were cultured at 37° C. in a humidified CO2 incubator in the growth medium consisting of DMEM, 10% fetal bovine serum and antibiotics. Prior to the assay, the cells were seeded onto a 12 mm PDL-coated glass coverslip and cultured in a 35 mm Petri dish. After 16 to 40 hr culture, the cover slip was transferred into the chamber of OctaFlow perfusion system (ALA Instrument) and under a constant flow of extracellular solution (140 mM NaCl, 4 mM KCl, 1 mM MgCl2, 2 mM CaCl2, 10 mM HEPES, 10 mM D-glucose, pH 7.35, osmolarity 290). Whole cell patch clamping was performed with a glass micropipette filled with intracellular solution (120 mM KCl, 1.75 mM MgCl2, 5.4 mM CaCl2, 10 mM HEPES, 10 mM EGTA, and 4 mM ATP-K2, PH 7.2, osmolarity 310). Giga-seal was maintained during the test. The voltage control and current measurement were carried out using Axon amplifier 700B, Digidata 1440A and CLAMPEX10 software (Molecular Devices). Whole-cell hERG currents were recorded following the Petroski protocol: the cell was held at −80 mV, and the voltage step jumped from −80 to 30 mV and stay for 2 sec with a 20 ms prepulse at −40 mV. After depolarization, the voltage was decreased to −40 mV and stay for 2 sec, and returned back to −80 mV. Test compound was applied by quartz capillary tubes tip (200 μm inner diameter), and the flow rate was controlled at 2-3 ml/min with OctaFlow perfusion system. Different concentrations of the compound were applied to the cells for 5 min and the hERG current was measured three times before, during and after compound treatment. The data were analyzed using Clampfit 10 software (Molecular Devices) to generate IC50 values.

human NR1/NR2B = human NR1/NR2B (Homo sapiens (Human), UniProt Q05586+Q13224); experiment: NR2B antagonist activity, Fluo-4 calcium influx in HEK293 cells; format: cell-based
Description: (§1) HEK293 cell lines stably expressing cloned human NR1/NR2B and NR1/NR2A, respectively, were established according to standard previously described methods (Hansen et al., Comb. Chem High Throughput Screen. 11:304, 2008). Activation of the NR2A or NR2B subtype of NMDA receptor with glutamate as an agonist and glycine co-agonist on these cells results in calcium influx, which can be monitored with fluorescent indicator Fluo-4.
(§2) For experiments, the cells were seeded onto poly-D-lysine-coated 96-well black plates with clear bottom (Corning) at a density of ˜50,000 cells/well. After overnight culture, the growth medium was removed from the wells and the cells were incubated at 37° C. for 60 min in Hanks buffer containing 4 μM fluo-4-AM (Invitrogen) and 0.1% bovine serum albumin (BSA). After dye-loading, the cells were washed three times with Hanks buffer and incubated for 10 min at room temperature with various concentrations of test compounds prepared in Hanks buffer with 0.1% BSA. The cell plates were placed onto FDSS pCell fluorescence reader (Hamamatsu). After 20 sec reading of background fluorescence, agonist glutamate at final 100 μM and co-agonist glycine at final 50 μM were added to the cells to activate the receptor, and the resulting fluorescence changes were recorded and quantified. Based on the changes in fluorescence intensity, the pharmacological effect of test compounds were analyzed and the IC50 values derived from a non-linear least squares fitting of the concentration-dependent response to a standard logistic equation using Prism (Graphpad, Inc): Amplitude=Max Amplitude/(1+(IC50/[antagonist])^n).

NR2B receptor = NR2B receptor (Rattus norvegicus (Rat), UniProt P35439+Q00960); experiment: [3H] (E)-N1-(2-methoxybenzyl)-cinnamidine radioligand binding, rat brain membranes; conditions: for Ki: read-out: Ki at the NR2B receptor high affinity site
Description: (§3) This example describes NMDA receptor binding assays using two different radioligands, [^3H] […] An established binding assay using the non-selective NMDA receptor ligand [^3H] […] The binding assay method using the NR2B selective receptor ligand [^3H] […] This assay serves as a selective measure of NR2B receptor binding activity in native rat brain receptors. Briefly, the brains of Male Wistar rats were homogenized (Polytron) before centrifugation at 40,000×g for 15 minutes at 4° C. After 2 washes, the final pellet was homogenized and stored at −80° C. The protein concentration was determined by Bradford assay.
[^3H] […] Thus, using [^3H]
(§4) Test compounds were solubilized at 10 mM in DMSO. Then the dilutions were performed with a constant solvent concentration (1% DMSO) in the assay.
(§5) After incubation for 4.5 h at room temperature, the assays were filtered on GF/B filters pretreated with 0.3% (v/v) PEI with a Brandel system for [^3H] […] The experiment was performed in duplicate (n=2).

NMDA receptor = experiment: [3H] MK-801 radioligand binding, rat brain membranes; conditions: 2 nM [3H] MK-801
Description: as §3, §4, §5

human NR1/NR2A = human NR1/NR2A (Homo sapiens (Human), UniProt Q05586+Q12879); experiment: NR2A antagonist activity, Fluo-4 calcium influx in HEK293 cells; format: cell-based; conditions: Table 2.1, glutamate 100 μM, glycine 50 μM
Description: as §1, §2

[3] = E1-1.2 at various doses, MK-801 1.25 mg/kg
[4] = Table 2.1, HEK293 human NR1/NR2B, glutamate 100 μM, glycine 50 μM

Chain of hERG channel (Q12809 whole entry): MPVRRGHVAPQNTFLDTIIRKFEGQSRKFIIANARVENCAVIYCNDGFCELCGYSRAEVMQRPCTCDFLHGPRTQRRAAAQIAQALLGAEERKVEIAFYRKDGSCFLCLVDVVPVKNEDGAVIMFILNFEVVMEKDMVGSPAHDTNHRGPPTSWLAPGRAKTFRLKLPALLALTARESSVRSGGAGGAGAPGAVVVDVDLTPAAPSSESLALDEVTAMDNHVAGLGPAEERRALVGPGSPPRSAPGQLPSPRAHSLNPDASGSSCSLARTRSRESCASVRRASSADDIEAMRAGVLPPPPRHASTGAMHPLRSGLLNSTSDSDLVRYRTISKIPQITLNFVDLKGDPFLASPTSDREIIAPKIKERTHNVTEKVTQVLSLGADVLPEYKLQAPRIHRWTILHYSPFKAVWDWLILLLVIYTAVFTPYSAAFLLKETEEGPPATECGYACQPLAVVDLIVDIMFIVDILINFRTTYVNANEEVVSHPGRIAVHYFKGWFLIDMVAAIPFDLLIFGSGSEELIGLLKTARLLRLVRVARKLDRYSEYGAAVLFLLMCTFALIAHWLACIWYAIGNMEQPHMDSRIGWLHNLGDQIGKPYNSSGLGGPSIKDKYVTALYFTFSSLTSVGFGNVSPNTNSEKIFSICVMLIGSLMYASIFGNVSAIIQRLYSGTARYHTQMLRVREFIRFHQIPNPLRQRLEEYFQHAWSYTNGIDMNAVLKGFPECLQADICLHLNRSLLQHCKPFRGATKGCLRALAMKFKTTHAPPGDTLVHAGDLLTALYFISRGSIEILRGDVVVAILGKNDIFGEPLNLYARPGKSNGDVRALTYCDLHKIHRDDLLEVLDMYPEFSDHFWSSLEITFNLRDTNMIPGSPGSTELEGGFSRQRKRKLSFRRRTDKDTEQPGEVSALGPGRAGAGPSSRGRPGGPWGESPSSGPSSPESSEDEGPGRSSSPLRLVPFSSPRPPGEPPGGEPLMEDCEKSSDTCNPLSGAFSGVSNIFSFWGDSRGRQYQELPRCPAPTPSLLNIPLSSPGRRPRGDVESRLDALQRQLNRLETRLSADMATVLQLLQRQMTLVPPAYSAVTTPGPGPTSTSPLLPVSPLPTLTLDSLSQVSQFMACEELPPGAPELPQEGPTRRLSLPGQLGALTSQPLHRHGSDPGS
Chain of human NR1/NR2A (Q12879 23-1464, other chains not shown): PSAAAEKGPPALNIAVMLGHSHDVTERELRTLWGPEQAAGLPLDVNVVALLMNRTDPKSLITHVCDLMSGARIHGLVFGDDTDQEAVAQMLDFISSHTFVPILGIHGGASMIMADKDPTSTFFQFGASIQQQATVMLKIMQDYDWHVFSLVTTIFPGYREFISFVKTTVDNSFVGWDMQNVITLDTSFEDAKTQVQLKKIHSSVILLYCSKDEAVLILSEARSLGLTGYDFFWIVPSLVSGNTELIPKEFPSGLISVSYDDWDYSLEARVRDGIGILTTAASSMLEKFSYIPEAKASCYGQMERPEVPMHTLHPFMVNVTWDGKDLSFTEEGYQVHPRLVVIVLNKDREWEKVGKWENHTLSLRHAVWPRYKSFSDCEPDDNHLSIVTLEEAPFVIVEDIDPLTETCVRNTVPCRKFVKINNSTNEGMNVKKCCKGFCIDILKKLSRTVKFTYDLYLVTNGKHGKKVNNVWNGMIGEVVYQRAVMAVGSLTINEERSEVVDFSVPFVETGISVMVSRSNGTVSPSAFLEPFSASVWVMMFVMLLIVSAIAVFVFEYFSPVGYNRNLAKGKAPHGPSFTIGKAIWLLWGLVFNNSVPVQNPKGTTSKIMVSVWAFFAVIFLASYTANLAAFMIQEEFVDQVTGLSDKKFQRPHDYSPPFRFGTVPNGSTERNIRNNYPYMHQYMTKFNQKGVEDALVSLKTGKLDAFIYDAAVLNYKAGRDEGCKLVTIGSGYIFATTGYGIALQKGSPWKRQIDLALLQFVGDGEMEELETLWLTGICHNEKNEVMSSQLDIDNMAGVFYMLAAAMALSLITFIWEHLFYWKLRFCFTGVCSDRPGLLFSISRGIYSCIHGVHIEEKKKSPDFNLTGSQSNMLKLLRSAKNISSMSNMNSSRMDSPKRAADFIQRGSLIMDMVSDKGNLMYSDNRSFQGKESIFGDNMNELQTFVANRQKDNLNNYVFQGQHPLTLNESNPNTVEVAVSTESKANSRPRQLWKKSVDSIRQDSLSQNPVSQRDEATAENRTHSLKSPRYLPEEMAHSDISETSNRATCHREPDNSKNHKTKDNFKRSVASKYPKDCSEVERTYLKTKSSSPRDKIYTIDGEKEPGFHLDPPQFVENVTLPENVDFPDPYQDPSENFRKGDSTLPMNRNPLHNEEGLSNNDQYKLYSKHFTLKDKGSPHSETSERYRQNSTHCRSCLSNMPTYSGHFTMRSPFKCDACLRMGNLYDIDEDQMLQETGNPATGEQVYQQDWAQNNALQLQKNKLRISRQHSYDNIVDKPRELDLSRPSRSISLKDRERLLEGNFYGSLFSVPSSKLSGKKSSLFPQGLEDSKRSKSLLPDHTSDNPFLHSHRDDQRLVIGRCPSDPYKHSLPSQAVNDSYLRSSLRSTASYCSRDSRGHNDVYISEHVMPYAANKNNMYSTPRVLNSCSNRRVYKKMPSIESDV
Chain of human NR1/NR2B (Q13224 27-1484, other chains not shown): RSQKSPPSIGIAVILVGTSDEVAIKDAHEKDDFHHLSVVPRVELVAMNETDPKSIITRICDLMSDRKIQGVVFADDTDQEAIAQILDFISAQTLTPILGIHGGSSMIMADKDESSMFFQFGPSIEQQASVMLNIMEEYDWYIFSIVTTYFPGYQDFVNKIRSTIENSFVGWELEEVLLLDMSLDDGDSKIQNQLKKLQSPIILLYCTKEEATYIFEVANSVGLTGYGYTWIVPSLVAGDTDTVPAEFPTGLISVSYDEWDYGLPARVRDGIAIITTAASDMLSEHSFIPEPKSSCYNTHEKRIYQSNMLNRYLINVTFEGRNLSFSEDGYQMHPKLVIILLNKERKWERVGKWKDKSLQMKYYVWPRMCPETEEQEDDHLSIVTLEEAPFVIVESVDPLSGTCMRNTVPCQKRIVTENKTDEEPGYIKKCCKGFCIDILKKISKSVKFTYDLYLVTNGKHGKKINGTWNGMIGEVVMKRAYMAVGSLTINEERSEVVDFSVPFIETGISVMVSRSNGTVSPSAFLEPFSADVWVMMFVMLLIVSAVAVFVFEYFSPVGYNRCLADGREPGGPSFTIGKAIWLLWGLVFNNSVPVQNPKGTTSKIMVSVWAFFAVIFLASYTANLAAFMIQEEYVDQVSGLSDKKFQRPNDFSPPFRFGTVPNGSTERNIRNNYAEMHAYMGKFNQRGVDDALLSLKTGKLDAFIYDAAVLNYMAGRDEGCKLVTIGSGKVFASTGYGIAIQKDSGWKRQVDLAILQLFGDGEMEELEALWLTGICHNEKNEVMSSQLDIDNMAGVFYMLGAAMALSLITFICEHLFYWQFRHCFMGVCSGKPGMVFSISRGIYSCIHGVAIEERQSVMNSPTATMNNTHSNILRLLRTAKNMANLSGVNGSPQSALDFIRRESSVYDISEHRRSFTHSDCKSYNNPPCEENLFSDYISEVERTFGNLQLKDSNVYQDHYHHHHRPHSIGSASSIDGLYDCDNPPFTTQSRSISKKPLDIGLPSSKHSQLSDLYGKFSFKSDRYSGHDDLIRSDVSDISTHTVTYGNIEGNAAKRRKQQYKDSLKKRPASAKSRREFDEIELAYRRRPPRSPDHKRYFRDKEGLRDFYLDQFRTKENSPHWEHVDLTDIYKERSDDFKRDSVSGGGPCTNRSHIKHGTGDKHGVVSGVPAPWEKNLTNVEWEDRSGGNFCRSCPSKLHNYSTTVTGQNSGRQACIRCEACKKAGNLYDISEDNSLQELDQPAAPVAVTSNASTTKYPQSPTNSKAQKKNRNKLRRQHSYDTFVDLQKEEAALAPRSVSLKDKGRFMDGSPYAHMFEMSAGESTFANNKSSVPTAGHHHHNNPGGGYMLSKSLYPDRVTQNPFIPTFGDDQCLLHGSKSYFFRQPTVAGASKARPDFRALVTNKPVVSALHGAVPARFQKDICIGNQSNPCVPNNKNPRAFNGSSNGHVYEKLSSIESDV
Chain of CYP2D6 (P10635 whole entry): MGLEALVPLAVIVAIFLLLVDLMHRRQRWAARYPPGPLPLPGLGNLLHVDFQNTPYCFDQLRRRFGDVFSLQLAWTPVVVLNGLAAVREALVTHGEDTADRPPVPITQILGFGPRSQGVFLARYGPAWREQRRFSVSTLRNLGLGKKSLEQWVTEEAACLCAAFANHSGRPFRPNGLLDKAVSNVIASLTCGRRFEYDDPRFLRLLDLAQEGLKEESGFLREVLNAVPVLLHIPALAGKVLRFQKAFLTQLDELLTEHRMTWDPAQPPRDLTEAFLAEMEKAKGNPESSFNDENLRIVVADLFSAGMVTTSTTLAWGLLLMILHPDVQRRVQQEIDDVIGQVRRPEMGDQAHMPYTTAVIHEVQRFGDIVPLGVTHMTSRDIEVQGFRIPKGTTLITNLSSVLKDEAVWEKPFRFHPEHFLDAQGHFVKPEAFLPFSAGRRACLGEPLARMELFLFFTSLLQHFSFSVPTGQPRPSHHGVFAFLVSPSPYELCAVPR

Molecule | CYP2D6 @ 10 μM (%) (CYP2D6) | hERG @ 10 μM (%) (hERG channel) | IC50 (human NR1/NR2B; [4]) | IC50 (human NR1/NR2B; Table 2.2) | IC50 (human NR1/NR2B; Table 2.3) | displacement of [3H] (E)-N1-(2-methoxybenzyl)-cinnamidine at the NR2B receptor high affinity site (NR2B receptor; rat brain membranes) | partial effect on [3H] MK-801 binding (NMDA receptor) | other results
FC(F)(F)c1ccc(C(F)(F)CN2CCC(Nc3ncnc4[nH]ncc34)CC2)cc1 [LX-1, reference compound] | 93% |  |  |  |  |  |  | 
MK-801 [reference compound] |  |  |  |  |  |  |  | number of CBF events vs vehicle ([1]; E1-1.2 at 10 mg/kg, MK-801 at 1.25 mg/kg): decreased; amplitude of DC potentials vs vehicle [1, 3]: not statistically different; duration of DC potentials vs vehicle [1, 3]: increased
Cc1ccc(COC(=O)N2CC[C@H](CNc3ncc4cn[nH]c4n3)C(F)(F)C2)cc1 [Compound E1-8.2, (+)-R-4-methylbenzyl-4-((1H-pyrazolo[3,4-d]pyrimidin-6-ylamino)methyl)-3,3-difluoropiperidine-1-carboxylate] | 83% | 57% | 17 nM | 17 nM | 17 nM | 95% | 33% | electroconvulsive threshold, pro-/anticonvulsant activity ([2]; 0.5 and 2 mpk p.o., free base): modest proconvulsant activity; electroconvulsive threshold, pro-/anticonvulsant activity ([2]; 10 and 20 mpk p.o., free base): anticonvulsant activity; IC50 (hERG channel): 6800 nM; IC50 (CYP2D6): 5900 nM
Cc1ccc(COC(=O)N2CC[C@H](CNc3nc4ccccn4n3)C(F)(F)C2)cc1 [Compound E1-9.2, (+)-R-4-methylbenzyl 4-(([1,2,4]triazolo[1,5-a]pyridin-2-ylamino)methyl)-3,3-difluoropiperidine-1-carboxylate] | 14% | 38% | 48.2 nM | 48.2 nM | 48.2 nM | 97% | 34% | Ki (NR2B receptor): 11.3 nM
O=C(OCc1ccc(F)cc1)N1CC[C@H](CNc2nccn3cnnc23)C(F)(F)C1 [Compound E1-1.4, R-4-fluorobenzyl 4-(([1,2,4]triazolo[4,3-a]pyrazin-8-ylamino)methyl)-3,3-difluoropiperidine-1-carboxylate] | 19% | 11% | 20.5 nM | 20.5 nM | 20.5 nM | 98% | 32% | IC50 (human NR1/NR2A): > 10000 nM; Ki (NR2B receptor): 18.2 nM
CCc1ccc(COC(=O)N2CC[C@H](CNc3nccn4cnnc34)C(F)(F)C2)cc1 [Compound E1-1.5, R-4-ethylbenzyl 4-(([1,2,4]triazolo[4,3-a]pyrazin-8-ylamino)methyl)-3,3-difluoropiperidine-1-carboxylate] |  |  |  |  |  | 97% | 48% | 
Cc1ccc(COC(=O)N2CC[C@H](CNc3ncccn3)C(F)(F)C2)cc1 [Compound E1-22.2, (+)-R-4-methylbenzyl 3,3-difluoro-4-((pyrimidin-2-ylamino)methyl)-piperidine-1-carboxylate] |  |  |  |  |  |  |  | IC50 (hERG channel): > 10000 nM
COc1ccccc1CNC(=N)/C=C/c1ccccc1 [(E)-N1-(2-methoxybenzyl)-cinnamidine, reference compound] |  |  |  |  |  |  |  | Ki (NR2B receptor; rat brain membranes, [3H] (E)-N1-(2-methoxybenzyl)-cinnamidine): 0.18 nM
Cc1ccc(COC(=O)N2CC[C@@H](CNc3nccn4cnnc34)C(F)(F)C2)cc1 [Compound E2-1.2, (−)-S-4-methylbenzyl 4-(([1,2,4]triazolo[4,3-a]pyrazin-8-ylamino)methyl)-3,3-difluoropiperidine-1-carboxylate] |  | 22% | 156 nM | 156 nM | 156 nM | 98% | 36% | IC50 (human NR1/NR2A): > 10000 nM; Ki (NR2B receptor): 74.3 nM
Cn1c(=O)c2[nH]cnc2n(C)c1=O [theophylline, reference compound] |  |  |  |  |  |  |  | electroconvulsive threshold, pro-/anticonvulsant activity ([2]; 128 mpk p.o.): expected proconvulsant activity
CN1C(=O)CN=C(c2ccccc2)c2cc(Cl)ccc21 [diazepam, reference compound] |  |  |  |  |  |  |  | electroconvulsive threshold, pro-/anticonvulsant activity ([2]; 16 mpk p.o.): expected anticonvulsant activity
Cc1ccc(COC(=O)N2CC[C@H](CNc3cncc4nncn34)C(F)(F)C2)cc1 [Compound E1-2.2, R-4-methylbenzyl 4-(([1,2,4]triazolo[4,3-a]pyrazin-5-ylamino)methyl)-3,3-difluoropiperidine-1-carboxylate] | 18% | 32% | 10.4 nM | 10.4 nM | 10.4 nM |  |  | IC50 (human NR1/NR2A): > 10000 nM
